Assay results: patent publication US20260001889A1, “COMPOSITIONS USEFUL FOR MODULATING SPLICING” (Skyhawk Therapeutics, Inc., priority 2022, published 2026)

Test system: ATXN3-HiBiT protein
Experiment: ATXN3 Total Protein Assay (Kelly-ATXN3-HiBiT luminescence)
Assay type: cell-based
Conditions: Kelly-ATXN3-HiBiT cells, 48 h after addition of compound
Source text: Example 36: ATXN3 Total Protein Assay
To monitor ATXN3 protein levels by luminescence, a Kelly-ATXN3-HiBiT cell line with homozygous knock-in of HiBiT at the C-terminus of the endogenous ATXN3 gene was used (knock-in of the HiBiT-tag coding sequence SEQ ID NO. 14: 5′[…]3′ into exon 11 of ATXN3-position 1114 of ATXN3 RefSeq NM_004993.6). Manipulations of the Kelly-ATXN3-HiBiT cell line that result in downregulation of the ATXN3-HiBiT protein (through modulation of ATXN3-HiBiT pre-mRNA splicing) can be followed by monitoring the luminescence signal of the HiBiT tag using the Nano Glo HiBiT Lytic Detection System (Promega, #N3050). Kelly-ATXN3-HiBiT cells were maintained in RPMI 1640 w/Glutamax (Gibco, #61870010), 10% FBS (Sigma Aldrich, #F8687), 1% Penicillin/Streptomycin (Gibco, #15140-122) at 37° C., 5% CO2. To assess HiBiT-luminescence signal upon compound treatment, 2000 Kelly-ATXN3-HiBiT cells were seeded per well in 384 plate format. Compounds were added 24 h after seeding. ATXN3-HiBiT-luminescence signal was read out 48 h after addition of the compound using the Nano Glo HiBiT Lytic Detection System (Promega, #N3050) according to the manufacturer's instructions. To control for cell viability, an identically prepared sister plate was read out with the CellTiter-Glo® 2.0 Assay (Promega, #G9243) according to the manufacturer's instructions. Fold changes of ATXN3-HiBiT-luminescence and of CellTiter-Glo viability signals were calculated relative to a DMSO control condition.

EC50 [nM] | SMILES
101 to 500 | [2H]C([2H])([2H])OCC[C@H](N)Cc1oc2c(NCc3cccs3)cc(Cl)nc2c1Cl [Compound 273, 2-[(S)-2-amino-4-(^2H3)methoxybutyl]-3,5-dichloro-7-thenylamino-1-oxa-4-azaindene]
101 to 500 | COCC[C@H](N)Cc1oc2c(NCc3cccs3)cc(Cl)nc2c1Cl [Compound 274, 2-[(S)-2-amino-4-methoxybutyl]-3,5-dichloro-7-thenylamino-1-oxa-4-azaindene]
101 to 500 | Clc1cc(NCc2cccs2)c2occ(Br)c2n1 [Compound 279, (thenyl)(3-bromo-5-chloro-1-oxa-4-aza-7-indenyl)amine]
10000 to 40000 | Clc1cc(NCc2ccncc2)c2occ(Br)c2n1 [Compound 280, [(4-pyridyl)methyl](3-bromo-5-chloro-1-oxa-4-aza-7-indenyl)amine]
501 to 5000 | C#Cc1c(C[C@@H](N)CC2(O)CC2)oc2c(NCc3cccs3)cc(Cl)nc12 [Compound 281, 1-[(2S)-2-amino-3-{5-chloro-3-ethynyl-7-[(thiophen-2-ylmethyl)amino]furo[3,2-b]pyridin-2-yl}propyl]cyclopropan-1-ol]
0.01 to 100 | [2H]C([2H])([2H])OC[C@]([2H])(N)Cc1oc2c(NCc3cccs3)cc(Cl)nc2c1Cl [Compound 282, 2-[(R)-2-amino-3-(^2H3)methoxy(2-2H)propyl]-3,5-dichloro-7-thenylamino-1-oxa-4-azaindene]
0.01 to 100 | [2H][C@](N)(COC)Cc1oc2c(NCc3cccs3)cc(Cl)nc2c1Cl [Compound 283, 2-[(R)-2-amino-3-methoxy(2-^2H)propyl]-3,5-dichloro-7-thenylamino-1-oxa-4-azaindene]
0.01 to 100 | [2H]C([2H])([2H])OC[C@]([2H])(N)Cc1oc2c(NCc3cccs3)cc(Cl)nc2c1Br [Compound 284, 2-[(R)-2-amino-3-(^2H3)methoxy(2-2H)propyl]-3-bromo-5-chloro-7-thenylamino-1-oxa-4-azaindene]
0.01 to 100 | [2H]C([2H])([2H])OC[C@]([2H])(N)Cc1oc2c(NCc3cccs3)cc(Cl)nc2c1C#C [Compound 286, 2-[(R)-2-amino-3-(^2H3)methoxy(2-2H)propyl]-5-chloro-3-ethynyl-7-thenylamino-1-oxa-4-azaindene]
0.01 to 100 | [2H][C@](N)(COC)Cc1oc2c(NCc3cccs3)cc(Cl)nc2c1C#C [Compound 287, 2-[(R)-2-amino-3-methoxy(2-^2H)propyl]-5-chloro-3-ethynyl-7-thenylamino-1-oxa-4-azaindene]
0.01 to 100 | [2H]C([2H])(OC)[C@H](N)Cc1oc2c(NCc3cccs3)cc(Cl)nc2c1Br [Compound 296, 2-[(R)-2-amino-3-methoxy(3,3- ^2H2)propyl]-3-bromo-5-chloro-7-thenylamino-1-oxa-4-azaindene]
0.01 to 100 | [2H]C([2H])([2H])OC([2H])([2H])[C@H](N)Cc1oc2c(NCc3cccs3)cc(Cl)nc2c1Br [Compound 297, 2-[(R)-2-amino-3-(^2H3)methoxy(3,3- ^2H2)propyl]-3-bromo-5-chloro-7-thenylamino-1-oxa-4-azaindene]
0.01 to 100 | [2H]C([2H])(OC(F)F)[C@H](N)Cc1oc2c(NCc3cccs3)cc(Cl)nc2c1Br [Compound 298, 2-[(R)-2-amino-3-difluoromethoxy(3,3- ^2H2)propyl]-3-bromo-5-chloro-7-thenylamino-1-oxa-4-azaindene]
0.01 to 100 | [2H]C([2H])(F)[C@H](N)Cc1oc2c(NCc3cccs3)cc(Cl)nc2c1Br [Compound 299, 2-[(R)-2-amino-3-fluoro(3,3-^2H2)propyl]-3-bromo-5-chloro-7-thenylamino-1-oxa-4-azaindene]
0.01 to 100 | [2H]C([2H])(OC)[C@H](N)Cc1oc2c(NCc3cccs3)cc(Cl)nc2c1C#C [Compound 300, 2-[(R)-2-amino-3-methoxy(3,3- ^2H2)propyl]-5-chloro-3-ethynyl-7-thenylamino-1-oxa-4-azaindene]
0.01 to 100 | [2H]C([2H])([2H])OC([2H])([2H])[C@H](N)Cc1oc2c(NCc3cccs3)cc(Cl)nc2c1C#C [Compound 301, 2-[(R)-2-amino-3-(^2H3)methoxy(3,3- ^2H2)propyl]-5-chloro-3-ethynyl-7-thenylamino-1-oxa-4-azaindene]
0.01 to 100 | [2H]C([2H])(OC(F)F)[C@H](N)Cc1oc2c(NCc3cccs3)cc(Cl)nc2c1C#C [Compound 302, 2-[(R)-2-amino-3-difluoromethoxy(3,3- ^2H2)propyl]-5-chloro-3-ethynyl-7-thenylamino-1-oxa-4-azaindene]
0.01 to 100 | [2H]C([2H])(c1oc2c(NCc3cccs3)cc(Cl)nc2c1Br)[C@@H](N)CF [Compound 305, 2-[(R)-2-amino-3-fluoro(1,1-^2H2)propyl]-3-bromo-5-chloro-7-thenylamino-1-oxa-4-azaindene]
0.01 to 100 | [2H]C([2H])([2H])OCC[C@H](N)Cc1oc2c(NCc3cccs3)cc(Cl)nc2c1C#C [Compound 320, 2-[(S)-2-amino-4-(^2H3)methoxybutyl]-5-chloro-3-ethynyl-7-thenylamino-1-oxa-4-azaindene]
0.01 to 100 | [2H]C([2H])(c1oc2c(NCc3cccs3)cc(Cl)nc2c1C#C)[C@@H](N)COC [Compound 330, 2-[(R)-2-amino-3-methoxy(1,1- ^2H2)propyl]-5-chloro-3-ethynyl-7-thenylamino-1-oxa-4-azaindene]
0.01 to 100 | [2H]C([2H])(c1oc2c(NCc3cccs3)cc(Cl)nc2c1C#C)[C@@H](N)CF [Compound 335, 2-[(R)-2-amino-3-fluoro(1,1-^2H2)propyl]-5-chloro-3-ethynyl-7-thenylamino-1-oxa-4-azaindene]
0.01 to 100 | [2H]C([2H])(c1oc2c(NCc3cccs3)cc(Cl)nc2c1Cl)[C@@H](N)CF [Compound 336, 2-[(R)-2-amino-3-fluoro(1,1-^2H2)propyl]-3,5-dichloro-7-thenylamino-1-oxa-4-azaindene]
10000 to 40000 | O=C(O)c1oc2c(NCc3cccs3)cc(Cl)nc2c1Br [Compound 347, 3-bromo-5-chloro-7-thenylamino-1-oxa-4-aza-2-indenecarboxylic acid]

SMILES | EC50 [nM]
[2H]C([2H])([2H])[C@H](N)Cc1oc2c(NCc3cccs3)cc(Cl)nc2c1C#C [Compound 270, 2-[(S)-2-amino(3,3,3-^2H3)propyl]-5-chloro-3-ethynyl-7-thenylamino-1-oxa-4-azaindene] | 0.01 to 100
[2H]C([2H])([2H])[C@@H](N)Cc1oc2c(NCc3cccs3)cc(Cl)nc2c1C#C [Compound 271, 2-[(R)-2-amino(3,3,3-^2H3)propyl]-5-chloro-3-ethynyl-7-thenylamino-1-oxa-4-azaindene] | 101 to 500
[2H]C([2H])(c1oc2c(NCc3cccs3)cc(Cl)nc2c1Br)[C@H](C)N [Compound 292, 2-[(S)-2-amino(1,1-^2H2)propyl]-3-bromo-5-chloro-7-thenylamino-1-oxa-4-azaindene] | 0.01 to 100
[2H]C([2H])(c1oc2c(NCc3cccs3)cc(Cl)nc2c1Cl)[C@H](C)N [Compound 293, 2-[(S)-2-amino(1,1-^2H2)propyl]-3,5-dichloro-7-thenylamino-1-oxa-4-azaindene] | 0.01 to 100
[2H]C([2H])(c1oc2c(NCc3cccs3)cc(Cl)nc2c1C#C)[C@H](C)N [Compound 327, 2-[(S)-2-amino(1,1-^2H2)propyl]-5-chloro-3-ethynyl-7-thenylamino-1-oxa-4-azaindene] | 0.01 to 100
COc1ccccc1CNc1cc(Cl)nc2c(Br)c(C[C@H](C)N)oc12 [Compound 337, 2-[(S)-2-aminopropyl]-3-bromo-5-chloro-7-{[(o-methoxyphenyl)methyl]amino}-1-oxa-4-azaindene] | 10000 to 40000
C[C@H](N)Cc1oc2c(NCc3ccc(C#N)cc3)cc(Cl)nc2c1Br [Compound 339, p-({2-[(S)-2-aminopropyl]-3-bromo-5-chloro-1-oxa-4-aza-7-indenylamino}methyl)benzonitrile] | 10000 to 40000
C[C@H](N)Cc1oc2c(NCc3ccc(F)cn3)cc(Cl)nc2c1Br [Compound 341, 2-[(S)-2-aminopropyl]-3-bromo-5-chloro-7-{[(5-fluoro-2-pyridyl)methyl]amino}-1-oxa-4-azaindene] | 5000 to 10000
C[C@H](N)Cc1oc2c(NCc3ccncc3F)cc(Cl)nc2c1Br [Compound 342, 2-[(S)-2-aminopropyl]-3-bromo-5-chloro-7-{[(3-fluoro-4-pyridyl)methyl]amino}-1-oxa-4-azaindene] | 101 to 500
COc1cc(CNc2cc(Cl)nc3c(Br)c(C[C@H](C)N)oc23)ccc1F [Compound 343, 2-[(S)-2-aminopropyl]-3-bromo-5-chloro-7-{[(4-fluoro-3-methoxyphenyl)methyl]amino}-1-oxa-4-azaindene] | 501 to 5000
COc1cccc(CNc2cc(Cl)nc3c(Br)c(C[C@H](C)N)oc23)n1 [Compound 348, 2-[(S)-2-aminopropyl]-3-bromo-5-chloro-7-{[(6-methoxy-2-pyridyl)methyl]amino}-1-oxa-4-azaindene] | 10000 to 40000
